Measured values from patent US5688936A, “Vesicle membrane transport proteins” (priority 1993, dated 1997).
“Also recorded” adds a separate entry of the source. Like-named read-outs stand apart in the source and are kept apart here.

Legend:
[1] = target: T1, chromaffin granule amine transport protein (Rattus norvegicus, UniProt Q01818); test: cell-based; type: cell-based; conditions: for inhibition of vesicular amine uptake/transport (fluorescence assay, in words): concentrations of Table 1
T1 sequence (Q01818 1-521): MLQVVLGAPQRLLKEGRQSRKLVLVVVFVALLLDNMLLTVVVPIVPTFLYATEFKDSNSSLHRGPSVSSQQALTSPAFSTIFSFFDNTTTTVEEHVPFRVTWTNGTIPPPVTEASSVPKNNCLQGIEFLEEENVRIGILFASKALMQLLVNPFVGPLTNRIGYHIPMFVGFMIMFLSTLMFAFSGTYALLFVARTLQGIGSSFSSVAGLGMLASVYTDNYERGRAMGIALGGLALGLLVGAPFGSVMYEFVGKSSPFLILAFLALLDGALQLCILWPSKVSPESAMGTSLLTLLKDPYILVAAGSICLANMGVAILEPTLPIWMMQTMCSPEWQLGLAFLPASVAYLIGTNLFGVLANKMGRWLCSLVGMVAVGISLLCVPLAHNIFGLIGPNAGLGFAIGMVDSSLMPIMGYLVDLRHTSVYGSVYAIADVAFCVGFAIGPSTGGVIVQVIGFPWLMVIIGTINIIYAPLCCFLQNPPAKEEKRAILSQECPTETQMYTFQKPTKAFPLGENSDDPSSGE
Method: Uptake and cellular compartmentalization of loaded dopamine were performed by growing cells on poly-lysine-coated glass coverslips. […] The cells were then washed three times in 0.1M sodium phosphate, pH 7.4, and incubated at 4° C. in 2% glyoxylic acid/0.5 mg% MgCl2, pH 4.9-5.0 for three minutes as described by de la Torre, J. Neurosci. Meth. 3:1-5 (1980). Briefly, excess solution is wiped off the bottom and edges of the slide using absorbent paper, taking care not to touch the section. The coverslips were then drained thoroughly, dried in air at 45° C. heated to 80° C. for five minutes, inverted over mineral oil on glass slides and examined under fluorescence using the appropriate filters as described by Knigge et al., Brain Res. 120:393-405 (1977). Briefly, the preparations were infiltrated with warm immersion oil and examined in a Leitz MPV2 microspectrofluorometer equipped with Schoffel excitation and emission grating monochromators, photomultipliers, and ratio computing circuitry. Cells were scanned with either monochromatic light (370 nm) or narrow band excitation (S405, BG3) light for the purpose of identifying fluorescence within cells. Ploem illumination was used in combination with a X 63 or X 100 oil immersion objective.
Dopamine-loaded fluorescence was carried out as described in Example 1. […] Glyoxylic-acid-induced fluorescence was used to determine the intracellular distribution as described above in Example 1. The procedures were the same as described in Example 1 however a pure cDNA clone encoding the vesicle membrane transport protein, selected in the presence of MPP^+, obtained as described herein, was used rather than the primary transformant. […]
The effects of various pharmacologic agents were tested to determine whether the properties of the protein encoded by the mpp^res cDNA corresponded with those expected for the chromaffin granule amine transport protein. […] The cells were pre-incubated in Krebs-Ringer buffer containing 1 μM pargyline and the dose of the drug indicated for 15 minutes. 25 nM [^3 H]-dopamine was then added in the same buffer and after incubation at 37° C. for one hour, the cells were washed in cold Krebs-Ringer buffer, lysed and counted in Ecolite (ICN) as described by Greene and Rein, Brain Res. 129:247-263 (1978). Values were determined from three separate wells and the mean was expressed as percent of control uptake±standard deviation. […] The dose required to inhibit maximal uptake by 50%, Ki, was estimated from the fluorescence data using a range of concentrations for each agent.

[2] = target: T1, chromaffin granule amine transport protein; test: Quantitative [3H]dopamine transport assay with mpp^res CHO cell homogenate; type: biochemical; conditions: dose-response, 2-minute incubation (FIG. 15C)
Method: The quantity of label bound is measured after filtration of the assay mixture. Preferably, the label is a radioactive label. […] This can be done by standard graphic kinetic techniques such as the Lineweaver-Burke plot.
Incubation was performed at 29° C. for the time period indicated (from 2 minutes to 30 minutes). The assay was terminated by dilution in cold assay buffer followed by filtration through 0.2 μm Supor™ 200 membranes (Gelman, Ann Arbor, Mich.) and the bound radioactivity was measured. The cells used for the quantitative assay are selected in MPP^+ or screened with antibody to ensure that they express the transporter at high levels, as it is difficult to measure activity in this assay at low levels of transporter expression.
The quantitative transport test was performed as described above on wild-type CHO cells and mpp^res CHO cells.

PC12 cells [3] = test: cells; conditions: Rattus norvegicus, PC-12, 1 h, read-out: [^3 H]-Dopamine Uptake (PC12)
Method: (§2) The effects of various pharmacologic agents were tested to determine whether the properties of the protein encoded by the mpp^res cDNA corresponded with those expected for the chromaffin granule amine transport protein. […] The cells were pre-incubated in Krebs-Ringer buffer containing 1 μM pargyline and the dose of the drug indicated for 15 minutes. […] Values were determined from three separate wells and the mean was expressed as percent of control uptake±standard deviation.

[4] = test system: vesicular amine transport protein; conditions: cited from earlier work
amine stores = conditions: in vivo; cited from earlier work
chromaffin cells = conditions: co-incubation with MPP+; cited from earlier work
wild-type CHO cells = test: MTT cytotoxicity assay in wild-type CHO cells; type: cell-based, Chinese hamster; conditions: CHO cells (FIG. 6b)
Method: (§1) Differential susceptibility to the respiratory complex I inhibitors MPP^+ and rotenone was shown by measuring toxicity by measuring general cell dehydrogenase activity with reduction of a tetrazolium dye (MTT) in a spectrophotometric plate assay as described by Hansen et al., J. Immunol. Methods 119:203-210 (1989). Briefly, a stock solution of MTT (3,(4,5-dimethylthiazol-2-yl)2,5-diphenyltetrazolium bromide) was dissolved at a concentration of 5 mg/ml in sterile phosphate buffered saline at room temperature. To each well was added 25 μl of the stock solution. After two hours of incubation at 37° C., 100 μl of extraction buffer (20% w/v of SDS in a solution of 50% each dimethylformamide and demineralized water with the pH adjusted to 4.7 with acetic acid and HCl). After an overnight incubation at 37° C., the optical densities at 570 nm were measured using a multiscanner, employing the extraction buffer as the blank. This assay was carried out in triplicate on 96-well plates (NUNC, Denmark). MPP^+ and rotenone at the concentrations indicated in FIG. 6a and 6b, respectively, was added to wild-type and MPP^+ -resistant CHO cells at approximately 50% confluence, and toxicity was assayed after 2-3 days by measuring general cell dehydrogenase activity with the reduction of the tetrazolium dye MTT (3,(4,5-dimethylthiazol-2-yl)2,5-diphenyl-tetrazolium bromide). After addition of the dye at a final concentration of 1 mg/ml, the cells were incubated for two hours at 37° C. and the formazan product was solubilized in 10% sodium dodecyl sulfate (SDS). The plates were maintained at 37° C. for an additional twenty hours and the optical density was determined in an ELISA plate reader at a test wavelength of 570 nm, a reference wavelength of 630 nm and a calibration setting of 1.99. All determinations were performed in triplicate and expressed as the mean, with the error bars representing standard deviation (FIG. 6a and 6b).

[5] = test system: MPP^+ -resistant CHO cells; test: MTT cytotoxicity assay in MPP+-resistant transfected CHO cells; type: cell-based, Chinese hamster
Method: as §1
To determine whether an alteration in the process of respiration was responsible for the resistance to MPP^+, the effects of other known respiratory inhibitors were examined. […] Thus, if the resistance were due to a change in the site of action, the transfected cells should also show resistance to rotenone. […] However, rotenone is considered to have its selected effect on respiration at relatively low doses, and an additional, less specific effect at higher doses.
Therefore, the toxicity of MPP^+ to transfected cells in the presence of 1 μM reserpine was examined.

respiratory complex I = conditions: cited from earlier work
idiopathic PD = conditions: in vivo, cited from earlier work
monoamine oxidase = conditions: cited from earlier work
PC12 cells [6] = conditions: percent of control uptake ± SD; agent 10 mM; 25 nM [3H]-dopamine, 1 h, 37° C.
Method: as §2

central dopamine neurons = conditions: primates; cited from earlier work
dopamine nerve terminals = conditions: mice; cited from earlier work
[7] = test system: plasma membrane monoamine transport activity; conditions: cited from earlier work
[8] = test system: complex III of the respiratory chain; conditions: cited from earlier work
midbrain cells = conditions: in vitro; cited from earlier work

COc1cc2c(cc1OC)C1CC(=O)C(CC(C)C)CN1CC2 (stereo not shown) [tetrabenazine]
inhibition of vesicular amine uptake/transport (fluorescence assay, in words) [1]: inhibited transport, but at high concentrations
Ki ([1]; dose required to inhibit maximal uptake by 50%, estimated from fluorescence data, read-out: Ki (est)): 100 µM
inhibition of dopamine transport [2]: inhibition by both reserpine and tetrabenazine
activity at 100 µM (PC12 cells [3]): 45 ± 2%
inhibition of vesicular amine transport [4]: an inhibitor of vesicular uptake; also recorded: inhibit this transport activity
potency to deplete central rather than adrenal amine stores (amine stores): greater potency of that drug to deplete central rather than adrenal amine stores
effect on MPP+ toxicity to chromaffin cells (chromaffin cells): chromaffin cell toxicity was potentiated

C=C(C)[C@H]1Cc2c(ccc3c2O[C@@H]2COc4cc(OC)c(OC)cc4[C@@H]2C3=O)O1 [rotenone]
rotenone toxicity pattern (MTT assay) (wild-type CHO cells): biphasic pattern
resistance of the transfectant to rotenone ([5]; vs wild-type): no substantial resistance
inhibition of respiratory complex I (respiratory complex I): inhibits complex I

C#CCN(C)C(C)Cc1ccccc1 (stereo not shown) [deprenyl]
rate of progression of Parkinson's disease (idiopathic PD): slow the rate of progression of the disease
rate of progression of Parkinson's disease (idiopathic PD; listed as Deprenyl): appears to slow the rate of progression
inhibition of monoamine oxidase (monoamine oxidase): inhibits the enzyme that activates MPTP, monoamine oxidase

Cl.N [NH4 Cl, ammonium chloride]
inhibition of vesicular amine uptake/transport (fluorescence assay, in words) [1]: inhibited uptake only partially
[^3 H]-Dopamine Uptake (PC12) (PC12 cells [6]): 51 ± 3%

CN1CC=C(c2ccccc2)CC1 [1-methyl-4-phenyl-1,2,3,6-tetrahydropyridine]
damage to central dopamine neurons (central dopamine neurons): Damage to central dopamine neurons
damage to dopamine nerve terminals (dopamine nerve terminals): dopamine nerve terminals in mice

COC(=O)[C@H]1[C@@H](OC(=O)c2ccccc2)C[C@@H]2CC[C@H]1N2C [cocaine]
inhibition of dopamine transport [2]: no inhibition
inhibition of plasma membrane monoamine transport [7]: inhibiting this activity

oligomycin
oligomycin toxicity pattern ([5]; wild-type vs resistant transfected CHO cells): same pattern of toxicity in wild-type and in resistant transfected CHO cells
inhibition of respiratory complex III [8]: inhibits complex III

B1: brain-derived neurotrophic factor (BDNF): neurotrophic factors such as brain-derived neurotrophic factor (BDNF) (protein, UniProt P23560 19-247, looked up)
Neurotrophic factor BDNF …: APMKEANIRGQGGLAYPGVRTHGTLESVNGPKAGSRGLTSLADTFEHVIEELLDEDQKVRPNEENNKDADLYTSRVMLSSQVPLEPPLLFLLEEYKNYLDAANMSMRVRRHSDPARRGELSVCDSISEWVTAADKKTAVDMSGGTVTVLEKVPVSKGQLKQYFYETKCNPMGYTKEGCRGIDKRHWNSQCRTTQSYVRALTMDSKKRIGWRFIRIDTSCVCTLTIKRGR
protection of midbrain cells from MPP+ (midbrain cells): can protect midbrain cells from MPP^+ in vitro
